What is called inhibition is the change of the read-out against control, counted positive when it falls. Lower therefore signals a weak effect.

For two compounds, inhibition results are on record in patent US20060173041A1, “Sulphonylpiperidine derivatives containing an aryl or heteroaryl group for use as matrix metalloproteinase inhibitors” (priority 2002, published 2006).

This assay deals with T1, proTNFα convertase enzyme (TACE) (Homo sapiens, UniProt P78536).
T1 construct: partially purified, isolated enzyme assay, the enzyme being obtained from the membranes of THP-1; endogenous in cells; host or cells: THP-1 cell membranes, partially purified as in Mohler et al. (1994) Nature 370:218-220
In words: partially purified isolated enzyme assay for proTNFα convertase (TACE). In kind it is biochemical. The conditions noted are these: 10 μM of compound; enzyme from membranes of THP-1; 26° C. for 4 hours. On the procedure:
Recombinant human proMMP13 may be expressed and purified as described by Knauper et al. [V. Knauper et al., (1996) The Biochemical Journal 271:1544-1550 (1996)]. […] Activity is determined by measuring the fluorescence at λex 328 nm and λem 393 nm. Percent inhibition may be calculated as follows: % Inhibition is equal to the [Fluorescenceplus inhibitor−Fluorescencebackground] divided by the [Fluorescenceminus inhibitor−Fluorescencebackground].
The ability of the compounds to inhibit proTNFα convertase enzyme (TACE) has been assessed using a partially purified, isolated enzyme assay, the enzyme being obtained from the membranes of THP-1 as described by K. M. Mohler et al., (1994) Nature 370:218-220. The purified enzyme activity and inhibition thereof was determined by incubating the partially purified enzyme in the presence or absence of test compounds using the substrate 4′,5′-Dimethoxy-fluoresceinyl Ser.Pro.Leu.Ala.Gln.Ala.Val.Arg.Ser.Ser.Ser.Arg.Cys(4-(3-succinimid-1-yl)fluorescein)-NH2 in assay buffer (50 mM Tris HCl, pH 7.4 containing 0.1% (w/v) Triton X-100 and 2 mM CaCl2), at 26° C. for 4 hours. The amount of inhibition was determined as for MMP13 except λex 485 nm and λem 538 nm were used. […]

T1 sequence (P78536 215-824): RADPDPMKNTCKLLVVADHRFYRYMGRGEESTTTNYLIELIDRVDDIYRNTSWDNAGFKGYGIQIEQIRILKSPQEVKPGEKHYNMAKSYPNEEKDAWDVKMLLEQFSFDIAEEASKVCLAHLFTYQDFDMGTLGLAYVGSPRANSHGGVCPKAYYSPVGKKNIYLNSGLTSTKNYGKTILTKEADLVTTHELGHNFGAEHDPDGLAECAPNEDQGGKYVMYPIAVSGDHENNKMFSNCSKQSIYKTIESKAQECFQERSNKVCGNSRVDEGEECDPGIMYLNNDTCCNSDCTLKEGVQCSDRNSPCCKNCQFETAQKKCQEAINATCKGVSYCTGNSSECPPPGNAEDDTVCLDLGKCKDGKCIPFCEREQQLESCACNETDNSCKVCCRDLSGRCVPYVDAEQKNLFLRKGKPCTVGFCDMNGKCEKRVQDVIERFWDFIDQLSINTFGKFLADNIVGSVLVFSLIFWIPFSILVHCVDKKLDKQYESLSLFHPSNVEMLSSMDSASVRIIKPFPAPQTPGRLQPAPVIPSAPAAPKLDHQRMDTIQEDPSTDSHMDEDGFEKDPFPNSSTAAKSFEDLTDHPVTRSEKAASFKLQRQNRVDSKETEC

Regarding `CC(C)Oc1ccccc1OC1CCN(S(=O)(=O)CC(c2ccccc2)N(O)C=O)CC1` (racemic) [Example 8, (R/S)-hydroxy(2-{[4-(2-isopropoxyphenoxy)piperidin-1-yl]sulphonyl}-1-phenylethyl)formamide], testing at 10 µM gave an inhibition of 81%.

With `CC(C)NC(=O)c1ccccc1OC1CCN(S(=O)(=O)CC(c2ccccc2)N(O)C=O)CC1` (racemic) [Example 14], the inhibition at 10 µM was 76%.
